Experimental data from patent US9062066B2, “Anti-inflammatory compound having inhibitory activity against multiple tyrosine kinases and pharmaceutical composition containing same” (KOREA INSTITUTE OF SCIENCE AND TECHNOLOGY, priority 2010, dated 2015).
Like-named read-outs stand apart in the source and are kept apart here.

Experiments:
[1] = tested on: α-smooth muscle actin protein expression in skin fibroblast cells; assay: inhibition of α-smooth muscle actin expression in fibroblast activated by type I collagen and TGF-β1 (western blotting); type: cell-based, Balb/C mouse; settings: Mus musculus, 0.5 uM compound, 10 ng/ml TGF-β1, 48 hours, type I collagen, read-out: Inhibition (%) of α-smooth muscle actin increase
Text: When fibroblast, […] alpha smooth muscle cells are converted to myofibroblast by activation, one of characteristic features is that α-smooth muscle actin protein expression is increased. Also myoblast cells with the increased α-smooth muscle actin expression have a character of an increased migration. These phenomena appear together with the activation of inflammatory cells and the activated myoblast-type cells are known to contribute directly to the pathology of inflammatory diseases. […] In this experiment, the expression level of alpha smooth muscle actin can be quantificated by measuring the density of α-smooth muscle actin protein band with densitometer after developing the X-ray film of chemiluminescence signal in western blotting experiment.

[2] = tested on: NO synthesis in J744A.1 macrophage; assay: inhibition of nitric oxide (NO) synthesis in LPS-activated macrophages (Griess reagent); type: cell-based; settings: read-out: Inhibition (%) of NO synthesis
[3] = tested on: mouse skin fibroblast; assay: inhibition of migration of activated fibroblast (scratch wound); type: cell-based; settings: 0.5 uM compound, 10 ng/ml TGF-β1, 24 hours, read-out: Inhibition (%) of migration of activated fibroblast
Procedure: The straight line of regular width was made using a micro pipette tip for a scratch wound on the mono-layer culture, and then the culture was exchanged to DMEM medium and incubated with 10 ng/ml of TGF-β1 in cell culture incubator of 37° C. for 24 hours. The cultured cells were fixed using formalin and stained with crystal violet. Photo-pictures were taken at 100× magnification in five location selected randomly in the scratched wound site of each stained culture dish and then the number of the cells moved into the scratched wound area was counted and averaged.

[4] = tested on: TNF-α synthesis in J744A.1 macrophages; assay: inhibition of TNF-α synthesis in LPS-activated macrophages (ELISA); type: cell-based; settings: Macrophage, read-out: Inhibition (%) of TNF-α synthesis
[5] = target: c-Src tyrosine kinase (Homo sapiens (Human), UniProt P12931); assay: in vitro c-Src tyrosine kinase inhibition (32P-ATP, poly(D4Y)n substrate); type: biochemical; settings: 1 uM compound; read-out: % inhibition against c-Src
Chain of c-Src tyrosine kinase (P12931 whole entry, looked up, the tested form may be a part): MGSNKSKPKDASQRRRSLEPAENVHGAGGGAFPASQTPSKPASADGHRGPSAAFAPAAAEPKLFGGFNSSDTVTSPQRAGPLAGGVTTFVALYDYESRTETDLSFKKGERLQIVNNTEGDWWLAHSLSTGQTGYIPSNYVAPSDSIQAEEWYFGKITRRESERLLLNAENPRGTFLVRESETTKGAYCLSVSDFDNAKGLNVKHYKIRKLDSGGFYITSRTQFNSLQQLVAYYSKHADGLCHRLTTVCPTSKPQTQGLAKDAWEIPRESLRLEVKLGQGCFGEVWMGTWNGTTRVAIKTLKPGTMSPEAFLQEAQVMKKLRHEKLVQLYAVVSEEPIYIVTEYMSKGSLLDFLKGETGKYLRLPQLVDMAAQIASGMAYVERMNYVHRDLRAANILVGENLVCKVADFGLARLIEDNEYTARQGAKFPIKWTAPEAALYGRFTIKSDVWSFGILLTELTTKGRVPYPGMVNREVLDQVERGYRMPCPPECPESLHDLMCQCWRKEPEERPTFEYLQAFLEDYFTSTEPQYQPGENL

[6] = target: DDR2 tyrosine kinase (Homo sapiens (Human), UniProt Q16832); assay: in vitro DDR2 tyrosine kinase inhibition (GST-fused kinase domain); type: biochemical; settings: 1 uM compound; read-out: % inhibition against DDR2
Chain of DDR2 tyrosine kinase (Q16832 563-849): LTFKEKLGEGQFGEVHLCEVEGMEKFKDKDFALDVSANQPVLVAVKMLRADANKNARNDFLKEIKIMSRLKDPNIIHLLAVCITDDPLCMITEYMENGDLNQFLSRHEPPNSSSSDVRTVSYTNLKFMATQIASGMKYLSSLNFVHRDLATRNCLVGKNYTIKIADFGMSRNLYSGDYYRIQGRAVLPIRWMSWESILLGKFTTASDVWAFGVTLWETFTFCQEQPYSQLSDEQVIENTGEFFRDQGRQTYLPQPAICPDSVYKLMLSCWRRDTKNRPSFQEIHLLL

[7] = tested on: oxazolone-induced skin inflammation of Balb/C mouse ears; assay: mouse skin inflammatory model induced by oxazolone (ear thickness); type: in vivo; settings: 20 ul of 0.1% compound topical on ear, 36 hours after oxazolone
Procedure: The compounds of the present invention were evaluated for their effective anti-inflammatory activity using a skin inflammatory animal model of 8 weeks old Balb/C mouse ears induced by oxazolone. […] After 4 days, the thickness of ear was measured using a caliper for the thickness value of ear before the induction of inflammation. […] After 36 hours, the thickness of ear was measured for the increased thickness induced by inflammation. […] The average value was obtained in each group (n=4).

[8] = target: Lyn tyrosine kinase (Homo sapiens (Human), UniProt P07948); assay: in vitro Lyn tyrosine kinase inhibition; type: biochemical; settings: 1 uM compound; read-out: % inhibition against Lyn
Chain of Lyn tyrosine kinase (P07948 whole entry): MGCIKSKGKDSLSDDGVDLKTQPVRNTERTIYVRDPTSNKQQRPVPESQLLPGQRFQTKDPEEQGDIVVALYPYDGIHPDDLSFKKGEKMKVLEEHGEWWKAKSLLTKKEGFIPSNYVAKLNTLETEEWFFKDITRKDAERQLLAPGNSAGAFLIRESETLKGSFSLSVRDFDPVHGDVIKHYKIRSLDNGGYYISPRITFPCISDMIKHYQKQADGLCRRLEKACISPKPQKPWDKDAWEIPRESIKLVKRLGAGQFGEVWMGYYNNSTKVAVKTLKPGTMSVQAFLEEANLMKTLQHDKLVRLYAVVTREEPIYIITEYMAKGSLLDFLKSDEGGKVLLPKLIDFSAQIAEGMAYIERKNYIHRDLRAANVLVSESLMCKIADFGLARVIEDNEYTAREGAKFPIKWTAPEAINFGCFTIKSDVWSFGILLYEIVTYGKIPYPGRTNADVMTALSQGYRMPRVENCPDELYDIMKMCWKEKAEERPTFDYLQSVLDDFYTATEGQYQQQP

[9] = target: Hck tyrosine kinase (Homo sapiens (Human), UniProt P08631); assay: in vitro Hck tyrosine kinase inhibition; type: biochemical; settings: 1 uM compound; read-out: % inhibition against Hck
Chain of Hck tyrosine kinase (P08631 whole entry, the tested form may be a part): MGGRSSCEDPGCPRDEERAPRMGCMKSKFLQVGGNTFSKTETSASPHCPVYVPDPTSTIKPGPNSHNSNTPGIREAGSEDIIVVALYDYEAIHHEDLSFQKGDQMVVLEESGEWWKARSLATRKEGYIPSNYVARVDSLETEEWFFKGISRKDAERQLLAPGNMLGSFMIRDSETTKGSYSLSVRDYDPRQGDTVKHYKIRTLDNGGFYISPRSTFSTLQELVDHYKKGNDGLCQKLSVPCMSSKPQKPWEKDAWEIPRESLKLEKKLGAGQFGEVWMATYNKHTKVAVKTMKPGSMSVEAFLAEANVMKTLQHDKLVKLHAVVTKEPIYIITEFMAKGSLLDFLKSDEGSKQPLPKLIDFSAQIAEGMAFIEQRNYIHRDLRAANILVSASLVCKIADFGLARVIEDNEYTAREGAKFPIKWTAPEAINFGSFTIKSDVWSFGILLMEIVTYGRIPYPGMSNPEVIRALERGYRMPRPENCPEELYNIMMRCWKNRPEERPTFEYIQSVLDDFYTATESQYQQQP

[10] = target: DDR1 tyrosine kinase (Homo sapiens (Human), UniProt Q08345); assay: in vitro DDR1 tyrosine kinase inhibition (GST-fused kinase domain); type: biochemical; settings: 1 uM compound; read-out: % inhibition against DDR1
Chain of DDR1 tyrosine kinase (Q08345 610-905): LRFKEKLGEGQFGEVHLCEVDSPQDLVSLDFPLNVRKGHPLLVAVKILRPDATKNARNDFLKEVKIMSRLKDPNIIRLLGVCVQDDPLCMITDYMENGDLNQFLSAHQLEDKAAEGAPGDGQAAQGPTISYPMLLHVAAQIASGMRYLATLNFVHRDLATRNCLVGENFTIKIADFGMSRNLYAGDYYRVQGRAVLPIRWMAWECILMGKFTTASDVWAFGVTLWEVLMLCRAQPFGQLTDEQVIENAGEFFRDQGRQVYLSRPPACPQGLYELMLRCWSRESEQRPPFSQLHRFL

[11] = target: Fgr tyrosine kinase (Homo sapiens (Human), UniProt P09769); assay: in vitro Fgr tyrosine kinase inhibition; type: biochemical; settings: 1 uM compound; read-out: % inhibition against Fgr
Chain of Fgr tyrosine kinase (P09769 whole entry): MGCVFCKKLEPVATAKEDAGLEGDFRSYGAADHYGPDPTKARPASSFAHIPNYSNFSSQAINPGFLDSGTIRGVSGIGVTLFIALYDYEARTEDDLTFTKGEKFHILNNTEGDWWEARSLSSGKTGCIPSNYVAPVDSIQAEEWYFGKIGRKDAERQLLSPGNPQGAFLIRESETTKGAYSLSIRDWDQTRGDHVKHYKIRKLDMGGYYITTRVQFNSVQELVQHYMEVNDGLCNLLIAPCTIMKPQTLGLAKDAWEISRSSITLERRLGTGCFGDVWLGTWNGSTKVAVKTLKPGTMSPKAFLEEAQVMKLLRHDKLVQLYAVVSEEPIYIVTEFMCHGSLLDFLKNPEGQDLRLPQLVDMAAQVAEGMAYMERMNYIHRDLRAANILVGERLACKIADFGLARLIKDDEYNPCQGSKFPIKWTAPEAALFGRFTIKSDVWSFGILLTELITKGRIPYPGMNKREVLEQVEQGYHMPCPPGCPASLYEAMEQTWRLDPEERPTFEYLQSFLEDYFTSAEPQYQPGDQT

[12] = 10 μM compound, 100 ng/ml LPS, 6 hours

inhibition at 1 µM [5]	inhibition at 1 µM [6]	inhibition at 1 µM [8]	inhibition at 1 µM [9]	inhibition at 1 µM [10]	inhibition at 1 µM [11]	Structure (SMILES)	inhibition at 0.5 µM [1]	inhibition at 10 µM ([2]; 10 μM compound, LPS, 24 hours)	inhibition at 0.5 µM [3]	inhibition at 10 µM [4, 12]	Inhibition (%) of increase of ear thickness [7]	inhibition at 10 µM ([2]; 24 h)	inhibition at 10 µM ([4]; 6 h)
> 80%	> 80%	> 80%	> 80%	> 80%	> 80%	CCN(CC)Cc1cccc(-c2cc3ncnc(Nc4cccc(O)c4)c3s2)c1.Cl [LCB 03-0063, 3-(6-(3-((diethylamino)methyl)phenyl)thieno[3,2-d]pyrimidin-4-ylamino)phenol]	61%	89%	36%	85%	51%	–	–
> 80%	> 80%	> 80%	> 80%	> 80%	> 80%	Cl.Oc1cccc(Nc2ncnc3cc(-c4cccc(CN5CCNCC5)c4)sc23)c1 [LCB 03-0064, 3-(6-(3-(piperazin-1-ylmethyl)phenyl)thieno[3,2-d]pyrimidin-4-ylamino)phenol]	66%	79%	41%	73%	63%	–	–
> 80%	> 70%	> 80%	> 80%	> 70%	> 80%	CCNCc1cccc(-c2cc3ncnc(Nc4cccc(O)c4)c3s2)c1.Cl [LCB 03-0065, 3-(6-(3-((ethylamino)methyl)phenyl)thieno[3,2-d]pyrimidin-4-ylamino)phenol]	58%	84%	35%	79%	52%	–	–
> 80%	> 80%	> 80%	> 80%	> 80%	> 80%	Cl.Oc1cccc(Nc2ncnc3cc(-c4cccc(CN5CCOCC5)c4)sc23)c1 [LCB 03-0066, 3-(6-(3-(morpholinomethyl)phenyl)thieno[3,2-d]pyrimidin-4-ylamino)phenol]	75%	87%	54%	93%	67%	–	–
> 80%	> 80%	> 80%	> 80%	> 80%	> 80%	CC(C)CNCc1cccc(-c2cc3ncnc(Nc4cccc(O)c4)c3s2)c1.Cl [LCB 03-0067, 3-(6-(3-((isobutylamino)methyl)phenyl)thieno[3,2-d]pyrimidin-4-ylamino)phenol]	49%	85%	33%	83%	54%	–	–
> 80%	> 80%	> 80%	> 80%	> 80%	> 80%	Cl.OCCNCc1ccc(-c2cc3ncnc(Nc4cccc(O)c4)c3s2)cc1 [LCB 03-0070, 3-(6-(4-((2-hydroxyethylamino)methyl)phenyl)thieno[3,2-d]pyrimidin-4-ylamino)phenol]	42%	90%	30%	77%	55%	–	–
> 80%	> 80%	> 80%	> 80%	> 80%	> 80%	Cl.Oc1cccc(Nc2ncnc3cc(-c4cccc(CCN5CCCC5)c4)sc23)c1 [LCB 03-0076, 3-(6-(3-(2-(pyrrolidin-1-yl)ethyl)phenyl)thieno[3,2-d]pyrimidin-4-ylamino)phenol]	57%	91%	45%	90%	54%	–	–
> 80%	> 80%	> 80%	> 80%	> 80%	> 80%	Oc1cccc(Nc2ncnc3cc(-c4cccc(CCN5CCNCC5)c4)sc23)c1 [LCB 03-0079, 3-(6-(3-(2-(piperazin-1-yl)ethyl)phenyl)thieno[3,2-d]pyrimidin-4-ylamino)phenol]	61%	74%	41%	67%	51%	–	–
> 60%	> 80%	> 60%	> 60%	> 80%	> 60%	Oc1cccc(Nc2ccnc3cc(-c4ccc(CN5CCOCC5)cc4)sc23)c1 [LCB 03-0083, 3-(2-(4-(morpholinomethyl)phenyl)thieno[3,2-b]pyridin-7-ylamino)phenol]	55%	71%	33%	62%	47%	–	–
> 60%	> 80%	> 60%	> 60%	> 80%	> 60%	CN1CCN(Cc2ccc(-c3cc4nccc(Nc5cccc(O)c5)c4s3)cc2)CC1 [LCB 03-0084, 3-(2-(4-((4-methylpiperazin-1-yl)methyl)phenyl)thieno[3,2-b]pyridin-7-ylamino)phenol]	57%	85%	36%	64%	49%	–	–

Structure (SMILES)	inhibition at 1 µM [5]	inhibition at 1 µM [6]	inhibition at 1 µM [8]	inhibition at 1 µM [9]	inhibition at 1 µM [10]	inhibition at 1 µM [11]	inhibition at 0.5 µM [1]	inhibition at 10 µM ([2]; 10 μM compound, LPS, 24 hours)	inhibition at 0.5 µM [3]	inhibition at 10 µM [4, 12]	Inhibition (%) of increase of ear thickness [7]	inhibition at 10 µM ([2]; 24 h)	inhibition at 10 µM ([4]; 6 h)
Oc1cccc(Nc2ccnc3cc(-c4ccc(CN5CCCC5)cc4)sc23)c1 [LCB 03-0080, 3-(2-(4-(pyrrolidin-1-ylmethyl)phenyl)thieno[3,2-b]pyridin-7-ylamino)phenol]	> 60%	> 80%	> 60%	> 60%	> 80%	> 60%	62%	–	41%	–	53%	78%	59%
Oc1cccc(Nc2ncnc3cc(-c4ccc(CN5CCCC5)s4)sc23)c1 [LCB 03-0085, 3-(6-(5-(pyrrolidin-1-ylmethyl)thiophene-2-yl)thieno[3,2-d]pyrimidin-4-ylamino)phenol]	> 70%	> 80%	> 70%	> 70%	> 80%	> 70%	51%	–	35%	–	53%	93%	74%
Oc1cccc(Nc2ncnc3cc(-c4ccc(CN5CCCC5)o4)sc23)c1 [LCB 03-0086, 3-(6-(5-(pyrrolidin-1-ylmethyl)furan-2-yl)thieno[3,2-d]pyrimidin-4-ylamino)phenol]	> 70%	> 80%	> 70%	> 70%	> 80%	> 70%	33%	–	21%	–	48%	72%	68%
